This is an account of results in PubChem BioAssay (NCI).

“And” between values parts separate entries of the source, which are not always exact repeats. Equal values may be shown once.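 How tested: cells in 96-well plates exposed to compound for 48 hours at five concentrations. GI50 is the concentration that inhibits growth by half. At the TGI there is no net growth.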 Where a SMILES comes first, the peptide text is derived from it. Bridges are numbered along the chain shown (N, C = ends). [ ]: non-standard residue; d: D form. The star is where a group is joined. ξ: configuration not given here. ξDab(CH2SO3H) = NC(CCNCS(=O)(=O)O)C(=O)O; Heptanoyl(6-Me) = CC(C)CCCCC(=O)*; Dab = NCC[CH](N)C(=O)O

Assay in all cases: growth of human tumour cells (NCI), 48 h
Experiment [1] deals with RXF 393 renal.
Experiment [2] relates to UACC-257 melanoma.
The subject of experiment [3] is MCF7 breast.
Experiment [4] relates to DU-145 prostate.
For experiment [5], the system named is BT-549 breast.
The test system of experiment [6] is SNB-19 CNS.
For experiment [7], the system named is OVCAR-4 ovarian.
Experiment [8] concerns HS 578T breast.
Experiment [9] relates to TK-10 renal.
The subject of experiment [10] is HOP-92 NSCLC.

Consider `CCC(C)C1NC(=O)C(CCNCS(=O)(=O)O)NC(=O)C(NC(=O)C(CCNCS(=O)(=O)O)NC(=O)C(NC(=O)C(CCNCS(=O)(=O)O)NC(=O)CCCCC(C)C)C(C)O)CCNC(=O)C(C(C)O)NC(=O)C(CCNCS(=O)(=O)O)NC(=O)C(CCNCS(=O)(=O)O)NC(=O)C(C(C)CC)NC1=O` (stereo not drawn) ({Heptanoyl(6-Me)}-[ξDab(CH2SO3H)]T[ξDab(CH2SO3H)][Dab][ξDab(CH2SO3H)]II[ξDab(CH2SO3H)][ξDab(CH2SO3H)]T; lactam 4-C; configuration not given here), for which the GI50 in experiment [1] is 7.47 µM; in [2] it was 11.7 µM; in experiment [3] it was 4.71 µM; in experiment [4] it was 7.09 µM; in [5], 6.27 µM; in experiment [6] it was 11.6 µM. In addition, the GI50 in experiment [7] was 11.3 µM; in experiment [8], 7.65 µM; in experiment [9], more than 25 µM. In addition, the TGI in experiment [1] was more than 25 µM; in experiment [2] it was more than 25 µM; in experiment [3], more than 25 µM; in experiment [4] it was 23.2 µM; in experiment [5] it was more than 25 µM; in experiment [6], more than 25 µM. The TGI in [7], in experiment [8] and in experiment [9] was more than 25 µM each time.
On to `COc1cc(-c2oc3c(OC)cc(OC)c(O)c3c(=O)c2OC)cc(OC)c1OC`, for which the TGI in experiment [1], in experiment [3], in experiment [4], in experiment [5], in experiment [6] and in experiment [10] was more than 100 µM throughout. In addition, the TGI in [7] is more than 100 µM; in [8], 8.21 µM; in experiment [9], more than 100 µM.
Regarding `COc1ccc2c(c1)[nH]c(=O)c1c3ccccc3cn21`, the GI50 is 0.0204 µM in experiment [1]; 5.13 µM and 12.7 µM in experiment [2]; 0.0282 µM and < 0.0378 µM in experiment [3]; 0.0549 µM in [5]; 0.0387 µM in experiment [6]; 1.01 µM and 2.18 µM in [10]. The GI50 is 0.0508 µM in experiment [8]; 0.515 µM and 0.265 µM in [9]. Further, the TGI in experiment [1] was 3.19 µM and 2.47 µM; in experiment [2], 30.8 µM; in experiment [3] it was 1.46 µM and 12.7 µM; in experiment [4], 11.9 µM; in experiment [5], 2.03 µM and 3.83 µM; in experiment [6], 4.05 µM and 26.4 µM. Besides, the TGI in experiment [10] is 15.9 µM; in experiment [8], 2.71 µM and 14.1 µM; in experiment [9], 2.43 µM and 2.21 µM.
With `N#C[Se]CCN1C(=O)C2C(C1=O)[C@H]1C=C[C@@H]2S1` (stereo partly drawn), the GI50 was 1.63 µM in experiment [1]; 1.97 µM in [2]; 2.37 µM in experiment [3]; 1.74 µM in experiment [5]; 1.88 µM in experiment [10]; 1.85 µM in [7]. For the same molecule, the GI50 is 1.75 µM in experiment [8] and 2.16 µM in [9]. For the same molecule, the TGI is 3.27 µM in experiment [1]; 5.4 µM in [2]; 9.19 µM in experiment [3]; 3.38 µM in [5]; 3.94 µM in experiment [10]; 6.1 µM in experiment [7]. Moreover, the values for the TGI in experiment [8] and in [9] were 6.21 µM and 4.44 µM, respectively.
In the case of `COc1cccc(/C=N/NC(=O)c2ccccc2N2CCCC2)c1O`, the GI50 in experiment [1] is 44.4 µM; in experiment [2], 3.05 µM; in experiment [4], 8.96 µM; in experiment [5], 12.6 µM; in [6], 8.93 µM; in experiment [10], 4.67 µM. Moreover, the GI50 in [7] is 2.63 µM; in experiment [8], 10.3 µM; in [9] it was 5.38 µM. Moreover, the TGI in experiment [1], in experiment [2], in experiment [4], in [5], in experiment [6] and in [10] was more than 100 µM each time. Besides, the TGI in experiment [7] was more than 100 µM; in experiment [8] it was 68.8 µM; in experiment [9], more than 100 µM.
Consider `CCOC(=O)c1cc(C(=O)c2cc(OC)c(OC)c(OC)c2)n2c1ccc1ccccc12`, for which the GI50 in experiment [1] is 0.22 µM; in [2] it was 2.27 µM; in experiment [3] it was 0.1 µM; in [4], 0.372 µM; in experiment [5] it was 1.08 µM; in experiment [6] it was 0.636 µM. In addition, the GI50 in experiment [10] was 1.43 µM; in experiment [8], 0.276 µM; in experiment [9], 2.37 µM. Further, the TGI in [1] is 0.81 µM; in experiment [2], more than 100 µM; in experiment [3], more than 100 µM; in experiment [4] it was more than 100 µM; in experiment [5] it was more than 100 µM; in experiment [6] it was more than 100 µM. Further, the TGI in experiment [10] was more than 100 µM; in [8], more than 20.6 µM; in experiment [9] it was more than 100 µM.
`CONC(C)=O`: the TGI in experiment [2], in experiment [3], in experiment [4], in experiment [5], in [6] and in experiment [8] was more than 100 µM throughout. The same molecule showed a TGI in experiment [9] of more than 100 µM.
Take `Cc1ccc(NC(=O)c2cc3ccccc3c(N=Nc3cc(S(=O)(=O)O)ccc3O)c2O)c(C)c1`: the TGI was 63.6 µM in experiment [1]; more than 100 µM in experiment [2]; more than 100 µM in experiment [4]; more than 100 µM in experiment [5]; 71.3 µM in experiment [6]; more than 100 µM in experiment [10]. Further, the TGI in [7], in experiment [8] and in experiment [9] was more than 100 µM throughout.
Regarding `[Cl][Hg][c]1ccc(Cl)s1`, the GI50 is 1.56 µM in experiment [1]; 1.54 µM in experiment [2]; 4.56 µM in experiment [4]; 2.11 µM in experiment [5]; 3.15 µM in [6]; 1.67 µM in experiment [10]. Also, the GI50 in experiment [7] was 1.76 µM; in [8], 4.41 µM; in experiment [9], 1.66 µM. In addition, the TGI was determined as 2.95 µM in experiment [1]; 3.04 µM in experiment [2]; 17.6 µM in experiment [4]; 5.21 µM in [5]; 13.4 µM in experiment [6]; 3.11 µM in experiment [10]. In addition, the TGI was determined as 4.78 µM in experiment [7], 73.7 µM in experiment [8] and 3.09 µM in experiment [9].
Take `O=C(NC(=O)c1ccccc1[N+](=O)[O-])Nc1ccc(Oc2ncc(Cl)cn2)c([N+](=O)[O-])c1`: the TGI in [2], in [3], in [4], in experiment [5], in experiment [6] and in experiment [7] was more than 100 µM throughout. In addition, the TGI is 0.636 µM in experiment [8] and more than 100 µM in experiment [9].
